Test results taken from PMC3465505 (Antiviral research, 2012).
Like-named read-outs stand apart in the source and are kept apart here. Marks after values point to notes of the source that are not given here.

Legend:
SV40 TAg [1] = molecular target: T1, SV40 TAg (Simian virus 40, UniProt P03070); type: biochemical
BKV = BKV DNA replication by qPCR in Vero cells; type: cell-based, BK virus; conditions: 10 μM, 5 d
SV40 [2] = experiment: SV40 plaque assay in CV1 cells; type: cell-based, Simian Virus 40; conditions: 2 days; for inhibition of viral replication relative to the DMSO control (plaque assay): 30 μM
CV1 cells = experiment: MTS viability assay; type: cell-based, monkey; conditions: CV1 cells ~90% confluency, 48 h
SV40 [3] = experiment: SV40 DNA replication by qPCR in CV1 cells; type: cell-based, Simian Virus 40; conditions: 48 hpi; for inhibition of DNA replication: 30 μM
SV40 TAg ATPase activity = SV40 TAg ATPase activity (Simian virus 40, UniProt P03070); experiment: biochemical; type: biochemical; conditions: for potency of TAg ATPase inhibition compared with MAL2-11B: 100 μM compound; for inhibition at 3 µM: read-out: inhibition of TAg ATPase activity; for inhibition at 30 µM: read-out: inhibition of the ATPase activity of TAg; for inhibition of TAg ATPase activity (SAR screen): 30 μM compound
SV40 TAg ATPase activity, sequence (P03070 whole entry): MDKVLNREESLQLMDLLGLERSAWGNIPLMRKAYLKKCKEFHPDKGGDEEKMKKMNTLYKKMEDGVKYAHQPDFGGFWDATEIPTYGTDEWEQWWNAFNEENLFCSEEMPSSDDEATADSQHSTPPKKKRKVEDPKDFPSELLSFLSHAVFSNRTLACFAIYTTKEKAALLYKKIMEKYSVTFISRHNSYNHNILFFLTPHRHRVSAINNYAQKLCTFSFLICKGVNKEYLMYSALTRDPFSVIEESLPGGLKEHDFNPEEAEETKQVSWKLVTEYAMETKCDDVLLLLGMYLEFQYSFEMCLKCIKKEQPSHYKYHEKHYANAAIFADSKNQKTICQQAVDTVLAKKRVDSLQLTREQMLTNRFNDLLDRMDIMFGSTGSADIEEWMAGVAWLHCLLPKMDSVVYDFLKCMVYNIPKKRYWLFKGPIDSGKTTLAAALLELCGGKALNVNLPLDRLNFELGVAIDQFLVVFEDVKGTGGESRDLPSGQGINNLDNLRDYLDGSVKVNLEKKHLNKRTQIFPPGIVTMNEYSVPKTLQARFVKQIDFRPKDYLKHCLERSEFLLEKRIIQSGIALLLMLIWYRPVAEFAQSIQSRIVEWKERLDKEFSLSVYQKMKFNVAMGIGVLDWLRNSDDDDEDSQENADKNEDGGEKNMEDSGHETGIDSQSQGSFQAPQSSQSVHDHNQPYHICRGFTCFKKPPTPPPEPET

SV40 TAg [4] = molecular target: T1, SV40 TAg; experiment: TAg aggregation under ATPase assay conditions; conditions: utilized ATPase assay conditions
[5] = TAg in the presence of 3 μM compound

T1 sequence (P03070 whole entry): as above

Oc1c(Cl)cc(Cl)c(Cl)c1Cc1c(O)c(Cl)cc(Cl)c1Cl [hexachlorophene]
Vmax (SV40 TAg [1]; [5]): 6.6 ^‡ pmol/min
inhibition of BKV replication (BKV): maintained its potent inhibition
inhibition of viral replication relative to the DMSO control (plaque assay) (SV40 [2]): ~100 fold
MI50 95% confidence range based on the sigmoidal fit (CV1 cells): 29 to 71 µM
MI50 (metabolic index-50) (CV1 cells): 55 µM
inhibition of DNA replication (SV40 [3]): ~ 100 fold
potency of TAg ATPase inhibition compared with MAL2-11B (SV40 TAg ATPase activity): significantly more potent inhibitors than MAL2-11B
inhibition at 3 µM (SV40 TAg ATPase activity): ~50%
inhibition at 30 µM (SV40 TAg ATPase activity): ~80%

Nc1ncnc2c1ncn2[C@@H]1O[C@H](COP(=O)(O)OP(=O)(O)O)[C@@H](O)[C@H]1O [ADP]
Vmax (SV40 TAg [1]; TAg in the presence of 150 μM ADP): 2.9 ^‡ pmol/min

Oc1c(Br)cc(Cl)cc1Sc1cc(Cl)cc(Br)c1O [6,6'-thiobis(2-bromo-4-chlorophenol)]
inhibition of TAg ATPase activity (SAR screen) (SV40 TAg ATPase activity): inhibited TAg ATPase activity

O=C1C(Cl)=C(Cl)C(=O)C(Cl)=C1Cl [chloranil]
TAg aggregation (SV40 TAg [4]): caused TAg to aggregate
potency of TAg ATPase inhibition compared with MAL2-11B (SV40 TAg ATPase activity): significantly more potent inhibitors than MAL2-11B

Oc1c(Br)cc(Cl)cc1Cc1cc(Cl)cc(Br)c1O [6,6'-methylenebis(2-bromo-4-chlorophenol)]
inhibition of TAg ATPase activity (SAR screen) (SV40 TAg ATPase activity): inhibited TAg ATPase activity

Oc1c(Cl)cc(Cl)cc1Sc1cc(Cl)cc(Cl)c1O [bithionol, Bithionol]
Vmax (SV40 TAg [1]; [5]): 10 ^‡ pmol/min
inhibition of BKV replication (BKV): somewhat less effective
inhibition of viral replication relative to the DMSO control (plaque assay) (SV40 [2]): ~100 fold
MI50 (metabolic index-50) (CV1 cells): 68 µM
inhibition of DNA replication (SV40 [3]): ~ 100 fold
potency of TAg ATPase inhibition compared with MAL2-11B (SV40 TAg ATPase activity): significantly more potent inhibitors than MAL2-11B
inhibition at 3 µM (SV40 TAg ATPase activity): ~50%
inhibition at 30 µM (SV40 TAg ATPase activity): ~80%

CC1=C(C(=O)OCc2ccccc2)C(c2ccc(-c3ccccc3)cc2)NC(=O)N1CCCCCC(=O)O (stereo not drawn) [MAL2-11B]
reduction of the number of plaques (SV40 [2]; 100 μM): ~60%
inhibition of DNA replication in culture (SV40 [3]; 100 μM): ~ 60%
